Data as given in ChEMBL document CHEMBL4732263 (Bioorg Med Chem, 2021).
Converted amounts (≈) assume the structure as drawn.

What was measured:
[1] = human, microsomes, 1 h, 1 µM
[2] = mouse, microsomes, 1 h, 1 µM
[3] = physchem; conditions: octanol/water, pH 7.4
[4] = physchem; conditions: HCl, pH 2, pH 2
[5] = physchem; conditions: PBS, pH 6.5, pH 6.5
[6] = in vitro; conditions: human, liver microsomes
[7] = in vitro; conditions: human, liver microsomes; remark: listed apart in the source
[8] = in vitro; conditions: mouse, liver microsomes
[9] = in vitro; conditions: mouse, liver microsomes; remark: listed apart in the source
[10] = Apparent half life in Balb/C mouse at 3.5 mg/kg, iv up to 24 hrs by LC-MS analysis; format: ADME, organism-based; conditions: in vivo, read-out: t1/2(app) (converted)
[11] = Plasma clearance in Balb/C mouse at 3.5 mg/kg, iv up to 24 hrs by LC-MS analysis; format: ADME, organism-based
[12] = Volume of distribution at steady state in Balb/C mouse plasma at 3.5 mg/kg, iv up to 24 hrs by LC-MS analysis; format: ADME, organism-based; conditions: read-out: Vdss
[13] = AUC(0 to infinity) in Balb/C mouse plasma at 3.5 mg/kg, iv up to 24 hrs by LC-MS analysis; format: ADME, organism-based; parameters: route intravenous, dose 3.5 mg/kg, time <=24
[14] = Clearance in Balb/C mouse blood at 3.5 mg/kg, iv up to 24 hrs by LC-MS analysis; format: ADME, organism-based; conditions: whole blood
[15] = Volume of distribution at steady state in Balb/C mouse blood at 3.5 mg/kg, iv up to 24 hrs by LC-MS analysis; format: ADME, organism-based; conditions: whole blood, read-out: Vdss
[16] = Half life in Sprague-Dawley rat at 2.6 mg/kg, iv up to 24 hrs by LC-MS analysis; format: ADME, organism-based; conditions: in vivo
[17] = Plasma clearance in Sprague-Dawley rat at 2.6 mg/kg, iv up to 24 hrs by LC-MS analysis; format: ADME, organism-based
[18] = Volume of distribution at steady state in Sprague-Dawley rat plasma at 2.6 mg/kg, iv up to 24 hrs by LC-MS analysis; format: ADME, organism-based; conditions: read-out: Vdss
[19] = AUC(0 to infinity) in Sprague-Dawley rat plasma at 2.6 mg/kg, iv up to 24 hrs by LC-MS analysis; format: ADME, organism-based; parameters: route intravenous, dose 2.6 mg/kg, time <=24
[20] = Clearance in Sprague-Dawley rat blood at 2.6 mg/kg, iv up to 24 hrs by LC-MS analysis; format: ADME, organism-based; conditions: whole blood
[21] = Volume of distribution at steady state in Sprague-Dawley rat blood at 2.6 mg/kg, iv up to 24 hrs by LC-MS analysis; format: ADME, organism-based; conditions: whole blood, read-out: Vdss
[22] = Drug excretion in Sprague-Dawley rat urine at 2.6 mg/kg, iv up to 24 hrs by LC-MS analysis; format: ADME, organism-based; conditions: read-out: Drug excretion
[23] = Clearance in Sprague-Dawley rat renal blood at 2.6 mg/kg, iv up to 24 hrs by LC-MS analysis; format: ADME, organism-based; conditions: whole blood
[24] = target: Sodium channel protein type 5 subunit alpha (Homo sapiens, UniProt Q14524)
Chain of Sodium channel protein type 5 subunit alpha (Q14524 whole entry): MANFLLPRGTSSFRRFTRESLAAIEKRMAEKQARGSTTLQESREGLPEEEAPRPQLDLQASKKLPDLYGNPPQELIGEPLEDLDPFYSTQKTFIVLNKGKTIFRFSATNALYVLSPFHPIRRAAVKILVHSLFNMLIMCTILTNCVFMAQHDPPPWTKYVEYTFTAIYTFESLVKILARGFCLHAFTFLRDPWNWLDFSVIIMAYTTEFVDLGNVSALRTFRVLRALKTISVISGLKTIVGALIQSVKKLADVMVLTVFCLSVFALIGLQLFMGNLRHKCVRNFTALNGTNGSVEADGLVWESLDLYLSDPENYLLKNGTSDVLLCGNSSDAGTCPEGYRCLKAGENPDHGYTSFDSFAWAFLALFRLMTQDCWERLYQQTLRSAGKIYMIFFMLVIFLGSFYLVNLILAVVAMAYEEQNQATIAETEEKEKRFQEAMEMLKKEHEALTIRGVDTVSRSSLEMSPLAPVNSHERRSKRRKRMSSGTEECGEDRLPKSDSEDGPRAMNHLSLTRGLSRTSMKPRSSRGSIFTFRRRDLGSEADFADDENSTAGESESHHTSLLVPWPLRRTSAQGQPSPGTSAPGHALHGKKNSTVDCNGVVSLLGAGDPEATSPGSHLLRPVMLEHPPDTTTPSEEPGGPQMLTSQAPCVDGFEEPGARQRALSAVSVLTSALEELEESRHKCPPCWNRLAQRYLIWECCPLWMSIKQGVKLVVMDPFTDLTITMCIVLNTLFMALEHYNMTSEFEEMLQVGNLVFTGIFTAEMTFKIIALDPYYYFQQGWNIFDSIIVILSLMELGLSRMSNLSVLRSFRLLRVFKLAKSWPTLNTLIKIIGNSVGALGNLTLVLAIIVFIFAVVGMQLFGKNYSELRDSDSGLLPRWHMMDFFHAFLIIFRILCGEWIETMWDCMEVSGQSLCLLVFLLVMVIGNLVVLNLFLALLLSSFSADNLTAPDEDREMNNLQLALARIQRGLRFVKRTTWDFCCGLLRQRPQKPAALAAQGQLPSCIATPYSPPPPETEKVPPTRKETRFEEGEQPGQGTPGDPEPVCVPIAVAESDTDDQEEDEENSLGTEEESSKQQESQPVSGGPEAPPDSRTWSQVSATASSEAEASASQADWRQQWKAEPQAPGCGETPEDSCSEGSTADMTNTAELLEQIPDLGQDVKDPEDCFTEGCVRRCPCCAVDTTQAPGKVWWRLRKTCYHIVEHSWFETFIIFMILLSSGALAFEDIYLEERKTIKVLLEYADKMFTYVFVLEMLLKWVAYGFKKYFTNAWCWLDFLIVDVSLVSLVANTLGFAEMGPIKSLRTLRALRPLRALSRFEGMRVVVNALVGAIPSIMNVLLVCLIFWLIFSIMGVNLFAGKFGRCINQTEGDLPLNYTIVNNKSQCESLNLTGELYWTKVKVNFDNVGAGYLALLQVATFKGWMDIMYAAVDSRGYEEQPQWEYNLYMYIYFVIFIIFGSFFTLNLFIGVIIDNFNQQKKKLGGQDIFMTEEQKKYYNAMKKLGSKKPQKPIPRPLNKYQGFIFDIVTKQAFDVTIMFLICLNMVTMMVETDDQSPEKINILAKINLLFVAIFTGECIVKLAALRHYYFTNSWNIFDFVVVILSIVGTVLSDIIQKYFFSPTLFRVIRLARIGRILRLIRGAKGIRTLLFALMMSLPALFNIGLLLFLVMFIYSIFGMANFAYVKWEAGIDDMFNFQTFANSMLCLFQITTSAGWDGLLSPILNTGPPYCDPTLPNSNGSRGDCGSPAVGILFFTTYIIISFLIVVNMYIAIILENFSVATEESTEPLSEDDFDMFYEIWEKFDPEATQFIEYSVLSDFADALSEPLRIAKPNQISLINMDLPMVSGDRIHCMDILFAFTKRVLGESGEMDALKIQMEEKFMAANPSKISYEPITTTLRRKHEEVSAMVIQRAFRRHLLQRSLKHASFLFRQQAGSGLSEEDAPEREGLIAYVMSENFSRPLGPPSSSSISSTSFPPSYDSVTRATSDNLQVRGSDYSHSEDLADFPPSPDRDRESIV

[25] = mouse, blood, 2 h; at 1 µg/mL
[26] = cells; conditions: Homo sapiens, HEK293, 10 min
[27] = in vivo; conditions: Balb/C, mouse, po
[28] = in vitro; conditions: Balb/C, mouse, plasma; at 1 µg/mL
[29] = in vitro; conditions: Balb/C, mouse, plasma; at 1 µg/mL; remark: listed apart in the source
[30] = Apparent half life in Balb/C mouse at 1.9 mg/kg, iv up to 24 hrs by LC-MS analysis; format: ADME, organism-based; conditions: in vivo, read-out: t1/2(app) (converted)
[31] = Plasma clearance in Balb/C mouse at 1.9 mg/kg, iv up to 24 hrs by LC-MS analysis; format: ADME, organism-based
[32] = Volume of distribution at steady state in Balb/C mouse plasma at 1.9 mg/kg, iv up to 24 hrs by LC-MS analysis; format: ADME, organism-based; conditions: read-out: Vdss
[33] = AUC(0 to infinity) in Balb/C mouse plasma at 1.9 mg/kg, iv up to 24 hrs by LC-MS analysis; format: ADME, organism-based; parameters: route intravenous, dose 1.9 mg/kg, time <=24
[34] = Clearance in Balb/C mouse blood at 1.9 mg/kg, iv up to 24 hrs by LC-MS analysis; format: ADME, organism-based; conditions: whole blood
[35] = Volume of distribution at steady state in Balb/C mouse blood at 1.9 mg/kg, iv up to 24 hrs by LC-MS analysis; format: ADME, organism-based; conditions: whole blood, read-out: Vdss
[36] = Half life in Sprague-Dawley rat at 2.9 mg/kg, iv up to 24 hrs by LC-MS analysis; format: ADME, organism-based; conditions: in vivo
[37] = Plasma clearance in Sprague-Dawley rat at 2.9 mg/kg, iv up to 24 hrs by LC-MS analysis; format: ADME, organism-based
[38] = Volume of distribution at steady state in Sprague-Dawley rat plasma at 2.9 mg/kg, iv up to 24 hrs by LC-MS analysis; format: ADME, organism-based; conditions: read-out: Vdss
[39] = AUC(0 to infinity) in Sprague-Dawley rat plasma at 2.9 mg/kg, iv up to 24 hrs by LC-MS analysis; format: ADME, organism-based; parameters: route intravenous, dose 2.9 mg/kg, time <=24
[40] = Clearance in Sprague-Dawley rat blood at 2.9 mg/kg, iv up to 24 hrs by LC-MS analysis; format: ADME, organism-based; conditions: whole blood
[41] = Volume of distribution at steady state in Sprague-Dawley rat blood at 2.9 mg/kg, iv up to 24 hrs by LC-MS analysis; format: ADME, organism-based; conditions: whole blood, read-out: Vdss
[42] = Drug excretion in Sprague-Dawley rat urine at 2.9 mg/kg, iv up to 24 hrs by LC-MS analysis; format: ADME, organism-based; conditions: read-out: Drug excretion
[43] = Clearance in Sprague-Dawley rat renal blood at 2.9 mg/kg, iv up to 24 hrs by LC-MS analysis; format: ADME, organism-based; conditions: whole blood
[44] = target: Voltage-gated inwardly rectifying potassium channel KCNH2 (Homo sapiens, UniProt Q12809)
Chain of Voltage-gated inwardly rectifying potassium channel KCNH2 (Q12809 whole entry): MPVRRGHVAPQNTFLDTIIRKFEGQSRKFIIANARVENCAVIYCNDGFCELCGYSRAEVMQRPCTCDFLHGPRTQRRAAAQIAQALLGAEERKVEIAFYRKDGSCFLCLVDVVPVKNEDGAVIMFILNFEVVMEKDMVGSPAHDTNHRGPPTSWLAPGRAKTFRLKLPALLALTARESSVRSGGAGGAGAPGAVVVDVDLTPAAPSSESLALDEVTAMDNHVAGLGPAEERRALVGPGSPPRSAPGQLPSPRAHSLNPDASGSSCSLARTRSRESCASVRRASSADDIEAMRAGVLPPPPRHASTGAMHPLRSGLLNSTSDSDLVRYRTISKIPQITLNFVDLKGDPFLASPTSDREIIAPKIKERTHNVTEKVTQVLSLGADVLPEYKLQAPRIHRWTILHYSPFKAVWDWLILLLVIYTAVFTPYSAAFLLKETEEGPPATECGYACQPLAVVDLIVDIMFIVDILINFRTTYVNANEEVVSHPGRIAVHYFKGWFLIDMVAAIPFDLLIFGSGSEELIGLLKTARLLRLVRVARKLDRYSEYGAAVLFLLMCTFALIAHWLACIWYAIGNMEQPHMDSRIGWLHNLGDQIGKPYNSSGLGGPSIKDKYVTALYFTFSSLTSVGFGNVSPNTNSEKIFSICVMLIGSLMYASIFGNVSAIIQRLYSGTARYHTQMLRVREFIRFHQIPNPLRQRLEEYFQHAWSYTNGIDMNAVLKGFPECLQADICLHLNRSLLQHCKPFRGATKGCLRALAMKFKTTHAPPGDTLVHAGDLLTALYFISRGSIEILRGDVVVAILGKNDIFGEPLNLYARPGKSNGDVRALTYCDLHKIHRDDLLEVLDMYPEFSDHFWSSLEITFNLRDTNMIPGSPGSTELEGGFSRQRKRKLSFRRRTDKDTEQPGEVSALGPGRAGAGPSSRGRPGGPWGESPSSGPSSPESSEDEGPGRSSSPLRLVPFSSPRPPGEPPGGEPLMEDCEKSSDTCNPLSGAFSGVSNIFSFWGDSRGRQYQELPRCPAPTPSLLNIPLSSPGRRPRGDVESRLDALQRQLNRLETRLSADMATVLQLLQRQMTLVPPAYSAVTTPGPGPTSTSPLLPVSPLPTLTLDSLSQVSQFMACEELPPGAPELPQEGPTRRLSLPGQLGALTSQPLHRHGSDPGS

[45] = in vitro; conditions: human, Caco-2
[46] = in vitro; conditions: human, Caco-2; remark: listed apart in the source
[47] = in vitro; conditions: human, Caco-2; remark: listed apart in the source
[48] = in vitro; conditions: human, Caco-2; remark: listed apart in the source
[49] = in vitro; conditions: human, Caco-2; remark: listed apart in the source

| SMILES | CL free [1] [µL/min/mg] | CL free [2] [µL/min/mg] | logD [3] | solubility kinetic [4] [µg/mL] | solubility kinetic [5] [µg/mL] | half-life at 1 h, 1 µM [6] [min] | microsomal CLint at 1 h, 1 µM [7] [µL/min/mg] | half-life at 1 h, 1 µM [8] [min] | microsomal CLint at 1 h, 1 µM [9] [µL/min/mg] | IC50 [24] [µM] | Stabilty [25] | IC50 [26] [µM] | fraction unbound at […], 1 ug/ml [28] | metabolised at 4 h, 1 ug/ml [29] [%] | Papp A→B at 2 h, 20 µM [47] [×10⁻⁶ cm/s] | Papp B→A at 2 h, 20 µM [48] [×10⁻⁶ cm/s] | other results |
| --- | --- | --- | --- | --- | --- | --- | --- | --- | --- | --- | --- | --- | --- | --- | --- | --- | --- |
| N=C(N)NC(=O)c1nc(-c2ccco2)c(N)nc1N | 55 | 245 | 1.4 | > 100 | 25 (≈ 95.7 µM) | 35 | 50 | 7.7 | 224 | – | – | – | – | – | – | – | – |
| N=C(N)NC(=O)c1nc(-c2ccc(C(F)(F)F)cc2)c(N)nc1N | 11 | 17 | 2.8 | > 100 | 50 (≈ 147 µM) | > 255 | < 7 | 153 | 11 | – | – | – | – | – | – | – | – |
| N=C(N)NC(=O)c1nc(-c2cc3ccccc3o2)c(N)nc1N | 84 | 167 | – | – | – | 33 | 53 | 16 | 106 | 22 | Unstable | 22 | 0.06 | < 6 | – | – | half-life [10]: 43.8 min; clearance [11]: 114 mL/min/kg; Vd [12]: 4.1 L/kg; AUC(0-inf) [13]: 1.6 µM·h; clearance [14]: 60 mL/min/kg; Vd [15]: 2.2 L/kg; half-life [16]: 294 min; clearance [17]: 87.7 mL/min/kg; Vd [18]: 17.5 L/kg; AUC(0-inf) [19]: 1.6 µM·h; clearance [20]: 44.7 mL/min/kg; Vd [21]: 8.9 L/kg; dose excreted at 24 h [22]: 12.5%; CL renal at 24 h [23]: 5.6 mL/min/kg; bioavailability at 24 h [27]: < 5% |
| COc1ncc(-c2nc(C(=O)NC(=N)N)c(N)nc2N)cn1 | < 7 | < 7 | – | > 100 | 12.5 (≈ 41.2 µM) | > 255 | < 7 | > 255 | < 7 | > 30 | Unstable | > 30 | 0.4 | < 6 | 0.57 | 0.26 | half-life [30]: 37.2 min; clearance [31]: 38 mL/min/kg; Vd [32]: 0.7 L/kg; AUC(0-inf) [33]: 2.7 µM·h; clearance [34]: 41 mL/min/kg; Vd [35]: 0.7 L/kg; half-life [36]: 402 min; clearance [37]: 51.3 mL/min/kg; Vd [38]: 3.4 L/kg; AUC(0-inf) [39]: 3.2 µM·h; clearance [40]: 78.9 mL/min/kg; Vd [41]: 5.2 L/kg; dose excreted at 24 h [42]: 36.4%; CL renal at 24 h [43]: 29.2 mL/min/kg; IC50 [44]: > 30 µM; bioavailability at 24 h ([27]; at 1.9 to 3.5 mg/kg): 0.81%; recovery at 2 h, 20 µM [45]: 104%; recovery at 2 h, 20 µM [46]: 97% |
| N=C(N)NC(=O)c1nc(-c2cc3ccccc3s2)c(N)nc1N | 41 | 417 | 2.9 | 50 (≈ 153 µM) | 12.5 (≈ 38.2 µM) | 68 | 25 | 7 | 252 | – | – | – | – | – | – | – | – |
| CC(C)NCC(O)COc1cccc2ccccc12 (centres undefined) [PROPRANOLOL] | – | – | – | – | – | – | – | – | – | – | – | – | – | – | 49 | 51 | efflux ratio at 2 h, 20 µM [49]: 1.1 |
